Holding throughout (type): cell-based
Assay [1] in a line: Cytotoxicity against mouse Hepa1c1c7 cells incubated for 24 hrs by MTT based assay. The settings on record: Hepa-1c1c7, 24 h. (Tetrazolium dyes change colour on reduction, which living cells bring about.)
The target of assay [2] is NAD(P)H dehydrogenase [quinone] 1 (Mus musculus) (UniProt Q64669). The assay is described as follows: Induction of quinone reductase activity in mouse Hepa1c1c7 cells assessed as maximum fold change at 50 uM incubated for 24 hrs by MTT based assay. To be noted: filed as activator.
NAD(P)H dehydrogenase [quinone] 1 (Mus musculus), sequence (Q64669 whole entry): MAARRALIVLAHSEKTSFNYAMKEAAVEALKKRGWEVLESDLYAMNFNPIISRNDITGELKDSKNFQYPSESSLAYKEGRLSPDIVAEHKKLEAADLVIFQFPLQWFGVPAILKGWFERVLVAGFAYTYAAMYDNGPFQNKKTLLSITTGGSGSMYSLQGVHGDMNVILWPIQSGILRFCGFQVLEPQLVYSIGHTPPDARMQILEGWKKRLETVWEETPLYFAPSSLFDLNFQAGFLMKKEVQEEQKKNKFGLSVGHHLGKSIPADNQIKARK
Assay [3] has the same target. The assay is described as follows: Induction of quinone reductase activity in mouse Hepa1c1c7 cells assessed as maximum fold change at 3.1 to 100 uM incubated for 24 hrs by MTT based assay. To be noted: dose 3.1-100 µM.

Calls of active or inactive are those of the source. No cut-off for these calls is given here. Bounds are passed on as bounds.

As to `C=C[C@@]1(C)CC[C@]2(C)C3C[C@H]4C=C(C=O)[C@]3(CC[C@H]2C1)C(O)O4` (stereo not given in full), the half-inhibitory concentration (IC50) – broadly, the concentration that gives 50% inhibition – in assay [1] was above 50 µM. The result in assay [2] was Active.

In the case of `C=C[C@@]1(C)CC[C@@]2(C)[C@@H](CC[C@]34COC(=O)[C@@H]3C[C@H](O)C[C@H]24)C1`, in assay [1], the IC50 was above 50 µM. Also, the outcome in assay [2] was Active.

`C=C[C@@]1(C)CC[C@]2(C)C3C[C@H]4C=C(CO)[C@]3(CC[C@H]2C1)C(OC)O4` (stereo not given in full) displayed an IC50 in assay [1] above 50 µM. Besides, the outcome in assay [2] was Active.

Consider `C=C[C@@]1(C)CC[C@]2(C)C3=C(CC[C@H]2C1)[C@](O)(CO)[C@@H](O)[C@H](Cl)C3`, for which the IC50 in assay [1] is above 50 µM. The outcome in assay [2] was Active.

`C=C[C@@]1(C)CC[C@@]2(C)[C@@H](CC[C@@]3(C)[C@@H]2CCC(=O)[C@@H]3C)C1` yielded an IC50 in assay [1] above 50 µM. Besides, in assay [3], the result was inactive.

In turn, `C=C[C@@]1(C)CC[C@@]2(C)[C@@H](CC[C@]34CO[C@H](OC)C3=C[C@@H](O)C[C@@H]42)C1` yielded a half-inhibitory concentration (IC50) in assay [1] above 50 µM. In addition, the outcome in assay [3] was inactive.

Take `CC1=C(Cc2ccccc2)C(=O)O[C@H]1Cc1ccccc1`: in assay [1], the IC50 was above 50 µM. In addition, the result in assay [3] was inactive.

In assay [1], `C=C[C@@]1(C)CC[C@@]2(C)[C@@H](CC[C@]34CO[C@@H](OC)C3=C[C@@H](O)C[C@@H]42)C1` displayed an IC50 above 50 µM. Besides, the result in assay [3] was inactive.

For the molecule `C=C[C@@]1(C)CC[C@@]2(C)[C@@H](C[C@@H]3[C@@H](O)C4=C[C@@H](O)C[C@H]2[C@@]43C)C1`, the IC50 in assay [1] is above 50 µM. Moreover, the result in assay [3] was inactive.

For the molecule `C=C[C@@]1(C)CC[C@@]2(C)[C@@H](CC=C3[C@@H]2C[C@@H](Cl)[C@H](O)[C@@]3(O)CO)C1`, in assay [1], the IC50 is above 50 µM. Further, in assay [3], the outcome was inactive.

Source of the values: ChEMBL document CHEMBL5034030, “Dolabrane Diterpenoids from the Chinese Liverwort Notoscyphus lutescens” (J Nat Prod, 2021).
